From ChEMBL document CHEMBL1201862, “PubChem BioAssay data set” (2004)
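Results reflect a 48-hour exposure of cells in 96-well plates to compound at five concentrations. Here, GI50 denotes the concentration required for 50% inhibition of growth.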 Activity calls are given as the source filed them. Cut-off read from the data, not from the text of the source: active = GI50 up to about 1.1 µM and inactive = higher.

Experiments:
Assay in all cases: NCI-60 cell line screen, 48 h
[1] = system: A498
[2] = system: SF-268
[3] = system: TK-10
[4] = system: UO-31
[5] = system: OVCAR-8
[6] = system: LOX IMVI
[7] = system: A549
[8] = system: SR
[9] = system: NCI-H460
[10] = system: DU-145
[11] = system: SK-MEL-28
[12] = system: MOLT-4
[13] = system: HT-29
[14] = system: HCT-116
[15] = system: HCT-15
[16] = system: SN12C
[17] = system: SNB-19
[18] = system: SF-295
[19] = system: EKVX
[20] = system: HL-60

Compound	GI50 [1]	GI50 [2]	GI50 [3]	GI50 [4]	GI50 [5]	GI50 [6]	GI50 [7]	GI50 [8]	GI50 [9]	GI50 [10]	GI50 [11]	GI50 [12]	GI50 [13]	GI50 [14]	GI50 [15]	GI50 [16]	GI50 [17]	GI50 [18]	GI50 [19]	GI50 [20]
[N-]=[N+]=NCc1nc(N)c2c3c(sc2n1)CCCC3	10.9 µM (inactive)	2.32 µM (inactive)	12.4 µM (inactive)	0.0532 µM (active)	1.51 µM (inactive)	0.272 µM (active)	3.27 µM (inactive)	4.99 µM (inactive)	3.43 µM (inactive)	3.13 µM (inactive)	7.16 µM (inactive)	3.29 µM (inactive)	1.55 µM (inactive)	2.52 µM (inactive)	2.76 µM	2.74 µM (inactive)	4.97 µM (inactive)	7.38 µM (inactive)	2.1 µM (inactive)	
CN1COCc2c1ccc1cc3ccc4c(c3nc21)COCN4S(C)(=O)=O	> 100 µM (inactive)	> 100 µM (inactive)	> 100 µM (inactive)	> 100 µM (inactive)	> 100 µM (inactive)	> 100 µM (inactive)	> 100 µM (inactive)	3.73 µM (inactive)	> 100 µM (inactive)	> 100 µM (inactive)	> 100 µM (inactive)	> 100 µM (inactive)	> 100 µM (inactive)	> 100 µM (inactive)	> 100 µM	> 100 µM (inactive)	> 100 µM (inactive)	> 100 µM (inactive)	78 µM (inactive)	
O=C(Cc1csc2[n+]1C(=O)/C(=C/c1ccc(Cl)cc1)S2)Nc1ccccc1	15.7 µM (inactive)	21.5 µM (inactive)	31.6 µM (inactive)	21.9 µM (inactive)	40.7 µM (inactive)	16.2 µM (inactive)	24.1 µM (inactive)	24.3 µM (inactive)	18.7 µM (inactive)	31.4 µM (inactive)	30.4 µM (inactive)		24.2 µM (inactive)	16.8 µM (inactive)	23.8 µM	32.1 µM (inactive)	34.9 µM (inactive)	17.5 µM (inactive)	16.3 µM (inactive)	20.2 µM (inactive)
CCCCN=C(OC1C=CCCC1)SC (centres undefined)	51.8 µM (inactive)	> 100 µM (inactive)	> 100 µM (inactive)	> 100 µM (inactive)	> 100 µM (inactive)		> 100 µM (inactive)	> 100 µM (inactive)	> 10 µM (inactive)	> 100 µM (inactive)	> 100 µM (inactive)	> 100 µM (inactive)	> 100 µM (inactive)	> 100 µM (inactive)	> 100 µM	> 100 µM (inactive)	> 100 µM (inactive)	> 100 µM (inactive)	> 100 µM (inactive)	> 100 µM (inactive)
CC(C)C1=CC23CCC4C(C)(C(=O)O)CCCC4(C)C2CC1C1C(=O)N(c2ccc(Cc4ccc(N5C(=O)C6C7CC8C9(C)CCCC(C)(C(=O)O)C9CCC8(C=C7C(C)C)C6C5=O)cc4)cc2)C(=O)C13 (centres undefined)	8.51 µM (inactive)	8.81 µM (inactive)	15.6 µM (inactive)	17.1 µM (inactive)	5.26 µM (inactive)		3.72 µM (inactive)	5.75 µM (inactive)		10.3 µM (inactive)	10.9 µM (inactive)	5.5 µM (inactive)	3.17 µM (inactive)	4.39 µM (inactive)	10.6 µM	10.1 µM (inactive)	5.85 µM (inactive)		6.58 µM (inactive)	9.35 µM (inactive)
Cn1nc(C(=O)N2CC(CCl)c3c2cc(N)c2ccccc32)cc1NC(=O)Nc1cc(C(=O)N2CC(CCl)c3c2cc(N)c2ccccc32)nn1C (centres undefined)	8.69 µM (inactive)	0.0275 µM (active)	> 100 µM (inactive)	14.1 µM (inactive)	0.249 µM (active)	< 0.01 µM (active)	0.499 µM (active)	< 0.01 µM (active)	< 0.01 µM (active)	0.0116 µM (active)	0.108 µM (active)	< 0.01 µM (active)	0.0215 µM (active)	0.0818 µM (active)	44.3 µM	0.0323 µM (active)	0.0621 µM (active)	1.55 µM (inactive)	29 µM (inactive)	
CC(=O)c1cc(I)c(O)c2ncccc12	2.85 µM (inactive)	3.22 µM (inactive)	9.46 µM (inactive)		2.92 µM (inactive)	3.85 µM (inactive)	4.34 µM (inactive)	2.91 µM (inactive)	4.06 µM (inactive)	3.3 µM (inactive)	4.09 µM (inactive)	2.42 µM (inactive)	4.42 µM (inactive)	2.94 µM (inactive)	5.13 µM	3.69 µM (inactive)	5.47 µM (inactive)	4.07 µM (inactive)	6.49 µM (inactive)	2.03 µM (inactive)
CC(C)=CCC/C(C)=C/CC/C(C)=C/CC/C(=C/CC/C(C)=C\CC/C(C)=C/CC/C(C)=C/CC/C(C)=C/Cc1cc(O)ccc1O)CO	5.33 µM (inactive)	2.67 µM (inactive)	6.61 µM (inactive)	7.98 µM (inactive)	3.75 µM (inactive)	2.94 µM (inactive)	4.14 µM (inactive)	3.26 µM (inactive)	9.57 µM (inactive)	32.6 µM (inactive)	2.29 µM (inactive)		4.52 µM (inactive)	2.84 µM (inactive)	7.11 µM	17.6 µM (inactive)	7.1 µM (inactive)	1.84 µM (inactive)	12.1 µM (inactive)	3.15 µM (inactive)
O=C(O)Cc1cccc2c(=O)c3cccc([N+](=O)[O-])c3[nH]c12	> 100 µM (inactive)		> 100 µM (inactive)	> 100 µM (inactive)	> 100 µM (inactive)	48.2 µM (inactive)	> 100 µM (inactive)	21.4 µM (inactive)	> 100 µM (inactive)	58.5 µM (inactive)		> 100 µM (inactive)	> 100 µM (inactive)	> 100 µM (inactive)	71.8 µM	99.1 µM (inactive)	43.3 µM (inactive)	> 100 µM (inactive)		> 100 µM (inactive)
CN(C)c1nc2sc3c(c2c(=O)o1)CCCC3	16 µM (inactive)		> 100 µM (inactive)	7.46 µM (inactive)	31.8 µM (inactive)	52 µM (inactive)	29.2 µM (inactive)	65.2 µM (inactive)	44.5 µM (inactive)	27.8 µM (inactive)	71.3 µM (inactive)	52.2 µM (inactive)	21 µM (inactive)	44.9 µM (inactive)	33.3 µM	36.9 µM (inactive)	25.6 µM (inactive)	31.6 µM (inactive)	25.5 µM (inactive)	27 µM (inactive)
Cc1cc(NC2=NCCO2)c2c(c1C)CCCC2	13.6 µM (inactive)	18.9 µM (inactive)	33.7 µM (inactive)	1.91 µM (inactive)	25.4 µM (inactive)		29.6 µM (inactive)	18.5 µM (inactive)	11.7 µM (inactive)	27.5 µM (inactive)	15.4 µM (inactive)	17.4 µM (inactive)	13.9 µM (inactive)	15.2 µM (inactive)	16.7 µM	22.2 µM (inactive)	11.2 µM (inactive)	12.6 µM (inactive)	23.6 µM (inactive)	10.6 µM (inactive)
CC1CCC2(CC1)NC1=C(CC(C)CC1)C1=C2CC(C)CC1 (centres undefined)	34 µM (inactive)		26.5 µM (inactive)	20.3 µM (inactive)	23 µM (inactive)	18.3 µM (inactive)	36.8 µM (inactive)	21.8 µM (inactive)	23.8 µM (inactive)	38.3 µM (inactive)	17.7 µM (inactive)	7.14 µM (inactive)	16.7 µM (inactive)	14.8 µM (inactive)	18.1 µM		23.5 µM (inactive)	18.1 µM (inactive)	39.1 µM (inactive)	14.4 µM (inactive)
COc1cc(/C=C2\CCC(C)C3=C2N=c2s/c(=C/c4ccc(Cl)cc4)c(=O)n2C3c2cc(OC)c(OC)c(OC)c2)cc(OC)c1OC (centres undefined)	> 100 µM (inactive)	> 100 µM (inactive)	> 100 µM (inactive)	> 100 µM (inactive)	> 100 µM (inactive)	> 100 µM (inactive)	> 100 µM (inactive)	> 100 µM (inactive)		> 100 µM (inactive)	> 100 µM (inactive)	> 100 µM (inactive)	> 100 µM (inactive)	> 100 µM (inactive)	> 100 µM	> 100 µM (inactive)	> 100 µM (inactive)		> 100 µM (inactive)	> 100 µM (inactive)
CC(=O)O[C@H]1[C@H](OC(=O)CC(C)(O)CC(=O)O)C[C@]2(C)C3=C(CCC2C1(C)C)[C@]1(C)CC[C@H]([C@H]2CC[C@H](C(C)(C)O)OC2O)[C@@]1(C)[C@@H](O)C3 (some centres undefined)	12.9 µM (inactive)		30.9 µM (inactive)	13.1 µM (inactive)	18.7 µM (inactive)	18.5 µM (inactive)	32.4 µM (inactive)	25.6 µM (inactive)	15.3 µM (inactive)	25.8 µM (inactive)	16.9 µM (inactive)	19 µM (inactive)	16.3 µM (inactive)	20.7 µM (inactive)	17.2 µM	17.5 µM (inactive)	18.8 µM (inactive)	18.3 µM (inactive)	17.4 µM (inactive)	17.7 µM (inactive)
[N-]=[N+]=NCc1cccc(Nc2cc(=O)[nH]c(=O)[nH]2)c1	> 100 µM (inactive)	> 100 µM (inactive)	> 100 µM (inactive)	> 100 µM (inactive)	> 100 µM (inactive)	> 100 µM (inactive)	> 100 µM (inactive)	> 100 µM (inactive)		> 100 µM (inactive)	> 100 µM (inactive)	> 100 µM (inactive)	> 100 µM (inactive)	> 100 µM (inactive)	> 100 µM	> 100 µM (inactive)	> 100 µM (inactive)	57.3 µM (inactive)	> 100 µM (inactive)	> 100 µM (inactive)
